Measurements: patent publication US9040713B2, “Methods of managing blood sugar levels and compositions related thereto” (EMORY UNIVERSITY, priority 2010, dated 2015)

What was measured:
MET = MET (Homo sapiens, UniProt P08581); assay: RTK kinase profile screen assay; format: biochemical; details: 10 μM
C57B5L/6J mice = assay: Hyperinsulinemic-euglycemic clamp; format: in vivo, mouse; details: 5 mg/kg oral 1 h before clamp
Procedure: (A) 4524-E7 provokes IR phosphorylation in various tissues of mice. Three-month-old C57BL/6J mice were starved for 12 h and then dosed with vehicle (0.5% methylcellulose) or 4524-E7 (20 mg/kg). Cell lysates from liver, muscle, and WAT were prepared at 3, 4, and 5 h after drug administration and analyzed by immunoblotting. (B) Basal and insulin-stimulated hepatic glucose production rates were measured by hyperinsulinemic-euglycemic clamp. […] (C) Hypoglycemic effect of 4524-E7 in C57BL/6J mice. C57BL/6J mice were starved for 12 h and then orally administrated with vehicle (0.5% methylcellulose) or 4524-E7 (5 mg/kg). Blood glucose was monitored at different time points as indicated (n=8, *: P<0.05, two-way ANOVA). (D) Hypoglycemic effect in db/db mice. db/db mice were starved for 12 h and then orally injected with vehicle (0.5% methylcellulose) or 4524-E7 (5 mg/kg). Blood glucose was monitored at different time points as indicated (n=5, *: P<0.05, two-way ANOVA). (E) Glucose tolerance test in ob/ob mice. The mice were starved for 12 hours and then orally administrated with vehicle or 4524-E7 (5 mg/kg). A bonus of glucose (2 gm/kg) was injected intraperitoneally 1 hour later. Blood glucose was then measured at 30 min intervals (n=13, *: P<0.05; **: P<0.01, two-way ANOVA).
C57B5L/6J mice were fasted for 12 h. […] In vivo hepatic glucose output was then determined by hyperinsulinemic-euglycemic clamp.

IR = IR (Homo sapiens, UniProt P06213); assay: Cell-based ELISA of IR tyrosine phosphorylation in CHO-IR cells; design: expressed in transfected cells; host or cells: CHO (CHO-IR, gift from Dr. Nicholas Webster, UCSD)
IR, sequence (P06213 763-1382 limits assumed): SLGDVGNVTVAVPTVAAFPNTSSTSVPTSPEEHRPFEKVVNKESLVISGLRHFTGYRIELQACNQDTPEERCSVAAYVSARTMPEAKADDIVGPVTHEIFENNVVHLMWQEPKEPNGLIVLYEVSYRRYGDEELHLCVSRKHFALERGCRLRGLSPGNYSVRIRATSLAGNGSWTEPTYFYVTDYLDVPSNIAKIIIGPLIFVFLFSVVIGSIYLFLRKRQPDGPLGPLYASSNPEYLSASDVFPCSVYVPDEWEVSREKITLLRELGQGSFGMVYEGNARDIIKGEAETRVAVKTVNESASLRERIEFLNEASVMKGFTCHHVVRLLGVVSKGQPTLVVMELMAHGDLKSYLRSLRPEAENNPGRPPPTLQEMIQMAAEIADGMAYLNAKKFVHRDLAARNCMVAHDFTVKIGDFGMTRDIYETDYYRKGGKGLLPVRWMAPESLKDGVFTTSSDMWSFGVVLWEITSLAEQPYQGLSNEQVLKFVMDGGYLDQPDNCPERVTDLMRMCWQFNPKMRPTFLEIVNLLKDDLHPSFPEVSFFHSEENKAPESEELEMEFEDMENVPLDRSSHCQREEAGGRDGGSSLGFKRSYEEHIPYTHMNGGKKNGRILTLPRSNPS
IR, sequence (P06213 28-758 limits assumed): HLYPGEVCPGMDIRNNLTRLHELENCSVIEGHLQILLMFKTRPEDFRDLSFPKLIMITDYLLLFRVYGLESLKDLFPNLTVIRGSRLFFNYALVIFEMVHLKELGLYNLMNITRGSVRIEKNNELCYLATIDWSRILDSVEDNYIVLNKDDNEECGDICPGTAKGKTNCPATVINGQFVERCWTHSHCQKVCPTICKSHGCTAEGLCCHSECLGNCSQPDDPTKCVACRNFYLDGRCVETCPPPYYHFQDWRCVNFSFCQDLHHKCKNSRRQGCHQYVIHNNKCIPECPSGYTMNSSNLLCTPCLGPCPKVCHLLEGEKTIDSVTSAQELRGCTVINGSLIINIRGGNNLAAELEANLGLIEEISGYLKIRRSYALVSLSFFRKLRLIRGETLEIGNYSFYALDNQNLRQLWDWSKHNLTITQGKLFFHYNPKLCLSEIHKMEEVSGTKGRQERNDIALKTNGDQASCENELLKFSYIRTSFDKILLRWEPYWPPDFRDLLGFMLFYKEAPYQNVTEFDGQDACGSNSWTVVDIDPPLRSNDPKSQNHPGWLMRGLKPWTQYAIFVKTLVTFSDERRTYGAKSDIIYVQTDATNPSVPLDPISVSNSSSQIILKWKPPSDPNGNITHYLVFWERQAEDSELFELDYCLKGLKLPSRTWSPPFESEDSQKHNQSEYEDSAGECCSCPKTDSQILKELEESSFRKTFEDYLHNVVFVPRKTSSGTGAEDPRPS
Procedure: A cell-based screening assay was developed with Chinese hamster ovary cells stably transfected with IR (CHO-IR) by using an ELISA to determine the IR tyrosine phosphorylation. […] Other 1,4-Napthoquinones that are structurally related to 4524-E7 were evaluated.
CHO-IR cells were seeded in a 96-well plate at 15,000 cells per well in […] of 0.1% FBS medium with 0.1% FBS. […] Cells were lysed, and phosphorylated receptors were captured with pY20 immobilized on ELISA plates. Bound receptors were washed, then detected using an anti-IR beta antibody, followed by an horseradish peroxidase-conjugated secondary antibody and colorimetric detection with 3,3′,5,5′-tetramethylbenzidine.
A cell-based ELISA assay was developed with an IR stably transfected Chinese Hamster Ovary (CHO-IR) cell line. […] The cell lysates were subjected to the sandwich ELISA using immobilized anti-phosphotyrosine antibody and anti-IR antibody.

GST-IRTK = biological target: T1, GST-IRTK (Homo sapiens, UniProt P06213); assay: UV-absorption spectra titration; format: binding
T1 construct: GST-tagged IRTK (GST-IRTK, a.a. 1011-1382); purchased Invitrogen
T1 sequence (P06213 1011-1382): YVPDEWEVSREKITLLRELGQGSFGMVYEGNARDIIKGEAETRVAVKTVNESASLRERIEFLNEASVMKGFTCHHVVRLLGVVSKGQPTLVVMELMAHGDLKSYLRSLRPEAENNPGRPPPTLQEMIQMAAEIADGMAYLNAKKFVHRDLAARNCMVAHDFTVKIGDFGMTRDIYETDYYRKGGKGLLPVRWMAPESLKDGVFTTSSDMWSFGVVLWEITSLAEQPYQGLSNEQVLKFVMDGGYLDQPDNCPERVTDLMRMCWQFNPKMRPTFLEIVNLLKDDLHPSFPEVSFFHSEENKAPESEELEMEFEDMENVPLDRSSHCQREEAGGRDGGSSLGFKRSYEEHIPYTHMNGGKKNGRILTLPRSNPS
Procedure: UV-Vis absorption for protein binding was obtained using the Cary 300 UV-Visible spectrophotometer (Varian Inc., Palo Alto, Calif.) equipped with 1.0 cm quartz cells. The spectra were scanned from 200 to 800 nm in Tris buffer (0.01M Tris, 0.05M NaCl, 10 mM MgCl2, pH 7.8). During the spectrophotometric titrations, protein (GST or GST-IRTK) was added to a cell containing a constant amount of compound. The absorbances at 602 nm were recorded (data were read for three times and mean value was obtain by averaging) and the obtained data were processed with KaleidaGraph (Synergy Software). Repeated measurements were done for all the samples and no significant differences were observed (The reproducibility errors is less than 5%). Binding results from the UV titration experiments were fit with a one site interaction model: r=K*Cfree/(1+K*Cfree) Where r represents the moles of bound compound per mole of protein, K is macroscopic binding constants, and Cfree is the free compound concentration in equilibrium with the complex. Insulin Competition Assay
Several small molecules bind to the intracellular kinase domain of IR (IRTK) and provoke its activation. DDN might also interact with the IRTK to activate IR. To test this possibility, an UV-absorption spectra analysis was performed using recombinant IRTK. […]

IGF-IR = biological target: T2, IGF-IR (Mus musculus, UniProt Q60751); assay: IGF-IR activation in mouse muscle and liver; format: in vivo; details: C57BL/6J mice, 20 mg/kg oral
T2 construct: from tissue; host or cells: muscle and liver of C57BL/6J mice
T2 sequence (Q60751 31-1373): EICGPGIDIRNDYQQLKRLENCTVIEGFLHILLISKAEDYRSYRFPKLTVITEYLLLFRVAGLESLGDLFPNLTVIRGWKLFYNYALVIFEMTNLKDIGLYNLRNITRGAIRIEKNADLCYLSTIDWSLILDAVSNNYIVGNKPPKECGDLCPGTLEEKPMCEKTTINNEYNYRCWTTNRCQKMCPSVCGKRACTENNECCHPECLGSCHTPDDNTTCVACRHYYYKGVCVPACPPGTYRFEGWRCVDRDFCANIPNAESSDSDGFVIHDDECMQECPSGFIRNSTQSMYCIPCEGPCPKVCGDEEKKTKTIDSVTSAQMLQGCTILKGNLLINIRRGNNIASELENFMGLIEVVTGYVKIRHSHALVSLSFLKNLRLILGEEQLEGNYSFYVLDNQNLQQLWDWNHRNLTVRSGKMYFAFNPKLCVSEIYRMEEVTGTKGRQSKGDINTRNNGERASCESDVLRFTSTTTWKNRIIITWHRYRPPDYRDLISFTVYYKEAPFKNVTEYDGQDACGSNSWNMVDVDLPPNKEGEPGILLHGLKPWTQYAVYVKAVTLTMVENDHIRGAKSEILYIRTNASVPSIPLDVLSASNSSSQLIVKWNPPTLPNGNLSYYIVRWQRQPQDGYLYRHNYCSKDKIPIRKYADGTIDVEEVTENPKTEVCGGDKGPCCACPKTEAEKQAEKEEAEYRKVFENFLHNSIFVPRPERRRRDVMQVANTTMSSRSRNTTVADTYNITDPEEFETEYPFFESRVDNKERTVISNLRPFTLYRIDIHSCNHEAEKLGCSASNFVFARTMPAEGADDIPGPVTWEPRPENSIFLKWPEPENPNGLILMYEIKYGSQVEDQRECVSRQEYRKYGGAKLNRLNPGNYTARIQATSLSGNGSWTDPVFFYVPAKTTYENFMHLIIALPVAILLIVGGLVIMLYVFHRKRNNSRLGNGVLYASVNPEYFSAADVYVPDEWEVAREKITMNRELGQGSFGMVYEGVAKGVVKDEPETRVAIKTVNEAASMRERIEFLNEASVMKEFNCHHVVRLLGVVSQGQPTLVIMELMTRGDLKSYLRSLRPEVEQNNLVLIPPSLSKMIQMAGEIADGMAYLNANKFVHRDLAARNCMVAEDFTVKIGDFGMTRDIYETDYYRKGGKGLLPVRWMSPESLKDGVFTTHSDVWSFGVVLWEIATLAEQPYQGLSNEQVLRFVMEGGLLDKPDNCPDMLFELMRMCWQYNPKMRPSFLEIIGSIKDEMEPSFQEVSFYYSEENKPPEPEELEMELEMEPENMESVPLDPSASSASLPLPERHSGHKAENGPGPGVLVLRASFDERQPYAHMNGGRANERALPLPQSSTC

MET, sequence (P08581 25-1390): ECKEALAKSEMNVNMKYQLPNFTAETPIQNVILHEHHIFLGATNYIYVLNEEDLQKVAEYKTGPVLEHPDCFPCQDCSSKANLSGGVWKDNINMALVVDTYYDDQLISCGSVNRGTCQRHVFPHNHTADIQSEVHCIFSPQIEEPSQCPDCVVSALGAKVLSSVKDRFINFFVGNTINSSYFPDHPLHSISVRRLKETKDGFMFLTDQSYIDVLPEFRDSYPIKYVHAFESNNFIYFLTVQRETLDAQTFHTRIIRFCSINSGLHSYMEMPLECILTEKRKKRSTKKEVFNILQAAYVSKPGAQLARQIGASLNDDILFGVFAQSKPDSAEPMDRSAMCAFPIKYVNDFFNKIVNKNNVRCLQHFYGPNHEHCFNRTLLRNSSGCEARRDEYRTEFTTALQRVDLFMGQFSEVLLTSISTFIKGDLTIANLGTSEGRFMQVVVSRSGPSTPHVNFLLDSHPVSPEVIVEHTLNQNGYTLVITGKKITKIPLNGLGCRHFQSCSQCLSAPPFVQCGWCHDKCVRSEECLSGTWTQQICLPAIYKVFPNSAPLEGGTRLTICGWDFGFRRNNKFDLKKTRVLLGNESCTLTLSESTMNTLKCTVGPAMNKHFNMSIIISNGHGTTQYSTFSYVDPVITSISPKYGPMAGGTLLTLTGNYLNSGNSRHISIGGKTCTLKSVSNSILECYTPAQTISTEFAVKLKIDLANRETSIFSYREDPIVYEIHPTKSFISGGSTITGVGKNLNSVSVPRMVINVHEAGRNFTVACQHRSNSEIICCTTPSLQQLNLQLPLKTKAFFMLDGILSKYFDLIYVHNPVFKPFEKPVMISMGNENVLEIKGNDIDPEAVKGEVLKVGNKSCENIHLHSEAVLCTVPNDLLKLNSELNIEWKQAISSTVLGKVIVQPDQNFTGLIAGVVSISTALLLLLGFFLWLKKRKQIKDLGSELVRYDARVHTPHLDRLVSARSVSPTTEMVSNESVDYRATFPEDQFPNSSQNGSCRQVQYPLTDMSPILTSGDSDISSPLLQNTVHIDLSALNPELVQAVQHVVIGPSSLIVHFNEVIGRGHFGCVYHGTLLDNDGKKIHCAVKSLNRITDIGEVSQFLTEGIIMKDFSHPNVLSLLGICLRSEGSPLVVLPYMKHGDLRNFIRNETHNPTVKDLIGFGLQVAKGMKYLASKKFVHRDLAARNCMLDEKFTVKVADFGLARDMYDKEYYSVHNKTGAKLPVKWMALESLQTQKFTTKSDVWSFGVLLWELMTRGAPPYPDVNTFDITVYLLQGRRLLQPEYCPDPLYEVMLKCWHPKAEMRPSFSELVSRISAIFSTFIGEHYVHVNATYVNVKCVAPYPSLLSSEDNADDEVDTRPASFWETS

| SMILES | inhibition of MET (MET) | insulin-stimulated suppression of hepatic glucose output (C57B5L/6J mice) | IR phosphorylation (IR; 5 μM, 15 min, CHO-IR cells, ELISA) | concentration at which IR activation peaked (IR; 15 min, dose-response) | concentration at which IR activation started (IR; 15 min, dose-response) | time at which IR activation is triggered (IR; 4524-E7 5 μM or insulin 50 nM) | time at which IR activation peaked (IR; 4524-E7 5 μM or insulin 50 nM) | Kd (GST-IRTK; UV titration, absorbance at 602 nm, read-out: binding constant Kd) | peak absorption at 560 and 602 nm in presence of GST-IRTK (GST-IRTK; spectra 200 to 800 nm) | IGF-IR activation in muscle or liver (IGF-IR) |
| --- | --- | --- | --- | --- | --- | --- | --- | --- | --- | --- |
| O=C1c2ccccc2C(=O)C2SC(Nc3ccc(Cl)cc3)=NC12 (stereo not shown) [4524-E7, 2-((4-chlorophenyl)amino)naphtho[2,3-d]thiazole-4,9(3aH,9aH)-dione] | slightly inhibited | potentiated the insulin actions in suppressing hepatic glucose output | about 250 % of basal level | 10 µM | 2.5 µM | 5 min | 30 min |  |  |  |
| CC(=O)Oc1ccc(OC(C)=O)c2c1C(=O)C(Cl)=C(Cl)C2=O [DDN, 5,8-diacetyloxy-2,3-dichloro-1,4-naphthoquinone] |  |  |  |  |  |  |  | ~3.27 µM | enhanced the peak absorption at 560 and 602 nm | did not stimulate IGF-IR activation |
